{
  "source": "ChEMBL document CHEMBL3044916",
  "about": "“Attract-and-kill: a new strategy for the management of the potato tuber moths Phthorimaea operculella (Zeller) and Symmetrischema tangolias (Gyen) in potato: laboratory experiments towards optimising pheromone and insecticide concentration” (2010)",
  "key": {"Phthorimaea operculella [1]": {"system": "Phthorimaea operculella", "assay": "Insecticidal activity against Phthorimaea operculella assessed as mortality at 1.25 g/l after 48 hr", "assay_type": "functional"}, "Symmetrischema tangolias [2]": {"system": "Symmetrischema tangolias", "assay": "Insecticidal activity against Symmetrischema tangolias assessed as mortality at 0.65 g/l after 48 hr", "assay_type": "functional"}, "Symmetrischema tangolias [3]": {"system": "Symmetrischema tangolias", "assay": "Insecticidal activity against Symmetrischema tangolias assessed as mortality at 5 g/l after 24 hr", "assay_type": "functional"}, "Phthorimaea operculella [4]": {"system": "Phthorimaea operculella", "assay": "Insecticidal activity against Phthorimaea operculella assessed as mortality at 0.65 g/l after 24 hr", "assay_type": "functional"}, "Symmetrischema tangolias [5]": {"system": "Symmetrischema tangolias", "assay": "Insecticidal activity against Symmetrischema tangolias assessed as mortality at 5 g/l after 3 days by cage bio assay relative to control", "assay_type": "functional", "settings": "72 h"}, "Symmetrischema tangolias [6]": {"system": "Symmetrischema tangolias", "assay": "Insecticidal activity against Symmetrischema tangolias assessed as mortality at 5 g/l after 36 days by cage bio assay relative to control", "assay_type": "functional", "settings": "864 h"}, "Phthorimaea operculella [7]": {"system": "Phthorimaea operculella", "assay": "Insecticidal activity against Phthorimaea operculella assessed as mortality at 0.35 g/l after 24 hr", "assay_type": "functional"}, "Phthorimaea operculella [8]": {"system": "Phthorimaea operculella", "assay": "Insecticidal activity against Phthorimaea operculella assessed as mortality at 5 g/l after 36 days by cage bio assay relative to control", "assay_type": "functional", "settings": "864 h"}, "Phthorimaea operculella [9]": {"system": "Phthorimaea operculella", "assay": "Insecticidal activity against Phthorimaea operculella assessed as mortality at 5 g/l after 6 days by cage bio assay relative to control", "assay_type": "functional", "settings": "144 h"}, "Phthorimaea operculella [10]": {"system": "Phthorimaea operculella", "assay": "Insecticidal activity against Phthorimaea operculella assessed as mortality at 5 g/l after 24 hr by attract-and-kill assay relative to control", "assay_type": "functional"}, "Phthorimaea operculella [11]": {"system": "Phthorimaea operculella", "assay": "Insecticidal activity against Phthorimaea operculella assessed as mortality at 0.65 g/l after 48 hr", "assay_type": "functional"}, "Phthorimaea operculella [12]": {"system": "Phthorimaea operculella", "assay": "Insecticidal activity against Phthorimaea operculella assessed as mortality at 2.5 g/l after 48 hr", "assay_type": "functional"}, "Phthorimaea operculella [13]": {"system": "Phthorimaea operculella", "assay": "Insecticidal activity against Phthorimaea operculella assessed as mortality at 5 g/l after 48 hr", "assay_type": "functional"}, "Symmetrischema tangolias [14]": {"system": "Symmetrischema tangolias", "assay": "Insecticidal activity against Symmetrischema tangolias assessed as mortality at 5 g/l after 4 days by attract-and-kill assay relative to control", "assay_type": "functional", "settings": "96 h"}, "Symmetrischema tangolias [15]": {"system": "Symmetrischema tangolias", "assay": "Insecticidal activity against Symmetrischema tangolias assessed as mortality at 0.35 g/l after 24 hr", "assay_type": "functional"}, "Phthorimaea operculella [16]": {"system": "Phthorimaea operculella", "assay": "Insecticidal activity against Phthorimaea operculella assessed as mortality at 5 g/l after 4 days by attract-and-kill assay relative to control", "assay_type": "functional", "settings": "96 h"}, "Symmetrischema tangolias [17]": {"system": "Symmetrischema tangolias", "assay": "Insecticidal activity against Symmetrischema tangolias assessed as mortality at 2.5 g/l after 24 hr", "assay_type": "functional"}, "Phthorimaea operculella [18]": {"system": "Phthorimaea operculella", "assay": "Insecticidal activity against Phthorimaea operculella assessed as mortality at 2.5 g/l after 24 hr", "assay_type": "functional"}, "Phthorimaea operculella [19]": {"system": "Phthorimaea operculella", "assay": "Insecticidal activity against Phthorimaea operculella assessed as mortality at 5 g/l after 24 hr", "assay_type": "functional"}, "Symmetrischema tangolias [20]": {"system": "Symmetrischema tangolias", "assay": "Insecticidal activity against Symmetrischema tangolias assessed as mortality at 1.25 g/l after 48 hr", "assay_type": "functional"}, "Symmetrischema tangolias [21]": {"system": "Symmetrischema tangolias", "assay": "Insecticidal activity against Symmetrischema tangolias assessed as mortality at 2.5 g/l after 48 hr", "assay_type": "functional"}, "Symmetrischema tangolias [22]": {"system": "Symmetrischema tangolias", "assay": "Insecticidal activity against Symmetrischema tangolias assessed as mortality at 0.65 g/l after 24 hr", "assay_type": "functional"}, "Phthorimaea operculella [23]": {"system": "Phthorimaea operculella", "assay": "Insecticidal activity against Phthorimaea operculella assessed as mortality at 5 g/l after 24 hr by attract-and-kill assay", "assay_type": "functional, organism-based"}, "Phthorimaea operculella [24]": {"system": "Phthorimaea operculella", "assay": "Insecticidal activity against Phthorimaea operculella assessed as mortality at 0.35 g/l after 48 hr", "assay_type": "functional"}, "Symmetrischema tangolias [25]": {"system": "Symmetrischema tangolias", "assay": "Insecticidal activity against Symmetrischema tangolias assessed as mortality at 5 g/l after 24 hr by attract-and-kill assay relative to control", "assay_type": "functional"}, "Symmetrischema tangolias [26]": {"system": "Symmetrischema tangolias", "assay": "Insecticidal activity against Symmetrischema tangolias assessed as mortality at 5 g/l after 8 days by cage bio assay relative to control", "assay_type": "functional", "settings": "192 h"}, "Symmetrischema tangolias [27]": {"system": "Symmetrischema tangolias", "assay": "Insecticidal activity against Symmetrischema tangolias assessed as mortality at 5 g/l after 24 hr by attract-and-kill assay", "assay_type": "functional, organism-based"}, "Symmetrischema tangolias [28]": {"system": "Symmetrischema tangolias", "assay": "Insecticidal activity against Symmetrischema tangolias assessed as mortality at 1.25 g/l after 24 hr", "assay_type": "functional"}, "Symmetrischema tangolias [29]": {"system": "Symmetrischema tangolias", "assay": "Insecticidal activity against Symmetrischema tangolias assessed as mortality at 5 g/l after 48 hr", "assay_type": "functional"}, "Phthorimaea operculella [30]": {"system": "Phthorimaea operculella", "assay": "Insecticidal activity against Phthorimaea operculella assessed as mortality at 5 g/l after 3 days by cage bio assay relative to control", "assay_type": "functional", "settings": "72 h"}, "Symmetrischema tangolias [31]": {"system": "Symmetrischema tangolias", "assay": "Insecticidal activity against Symmetrischema tangolias assessed as mortality at 0.35 g/l after 48 hr", "assay_type": "functional"}, "Phthorimaea operculella [32]": {"system": "Phthorimaea operculella", "assay": "Insecticidal activity against Phthorimaea operculella assessed as mortality at 1.25 g/l after 24 hr", "assay_type": "functional"}},
  "note": "The source made the active and inactive calls. No cut-off for these calls is given here.",
  "data": [
    {"smiles": "CC1(C)C(C=C(Cl)Cl)C1C(=O)OC(C#N)c1ccc(F)c(Oc2ccccc2)c1", "note": "(configuration not stated) [CYFLUTHRIN]", "values": [
      {"measurement": "mortality at 1250 µg/mL", "setting": "Phthorimaea operculella [1]", "value": 63.2, "unit": "%"},
      {"measurement": "mortality at 650 µg/mL", "setting": "Symmetrischema tangolias [2]", "value": 31.6, "unit": "%"},
      {"measurement": "mortality at 5000 µg/mL", "setting": "Symmetrischema tangolias [3]", "value": 59.4, "unit": "%"},
      {"measurement": "mortality at 650 µg/mL", "setting": "Phthorimaea operculella [4]", "value": 26.3, "unit": "%"},
      {"measurement": "mortality at 5000 µg/mL", "setting": "Symmetrischema tangolias [5]", "value": 100, "unit": "%"},
      {"measurement": "mortality at 5000 µg/mL", "setting": "Symmetrischema tangolias [6]", "value": 53, "unit": "%"},
      {"measurement": "mortality at 350 µg/mL", "setting": "Phthorimaea operculella [7]", "value": 21.1, "unit": "%"},
      {"measurement": "mortality at 5000 µg/mL", "setting": "Phthorimaea operculella [8]", "value": 44, "unit": "%"},
      {"measurement": "mortality at 5000 µg/mL", "setting": "Phthorimaea operculella [9]", "value": 100, "unit": "%"},
      {"measurement": "mortality at 5000 µg/mL", "setting": "Phthorimaea operculella [10]", "value": 40, "unit": "%"},
      {"measurement": "mortality at 650 µg/mL", "setting": "Phthorimaea operculella [11]", "value": 47.4, "unit": "%"},
      {"measurement": "mortality at 2500 µg/mL", "setting": "Phthorimaea operculella [12]", "value": 63.2, "unit": "%"},
      {"measurement": "mortality at 5000 µg/mL", "setting": "Phthorimaea operculella [13]", "value": 84.2, "unit": "%"},
      {"measurement": "mortality at 5000 µg/mL", "setting": "Symmetrischema tangolias [14]", "value": 100, "unit": "%"},
      {"measurement": "mortality at 350 µg/mL", "setting": "Symmetrischema tangolias [15]", "value": 10.5, "unit": "%"},
      {"measurement": "mortality at 5000 µg/mL", "setting": "Phthorimaea operculella [16]", "value": 100, "unit": "%"},
      {"measurement": "mortality at 2500 µg/mL", "setting": "Symmetrischema tangolias [17]", "value": 52.7, "unit": "%"},
      {"measurement": "mortality at 2500 µg/mL", "setting": "Phthorimaea operculella [18]", "value": 47.4, "unit": "%"},
      {"measurement": "mortality at 5000 µg/mL", "setting": "Phthorimaea operculella [19]", "value": 57.9, "unit": "%"},
      {"measurement": "mortality at 1250 µg/mL", "setting": "Symmetrischema tangolias [20]", "value": 42.2, "unit": "%"},
      {"measurement": "mortality at 2500 µg/mL", "setting": "Symmetrischema tangolias [21]", "value": 68.3, "unit": "%"},
      {"measurement": "mortality at 650 µg/mL", "setting": "Symmetrischema tangolias [22]", "value": 26.6, "unit": "%"},
      {"measurement": "Activity", "setting": "Phthorimaea operculella [23]", "value": "Active"},
      {"measurement": "mortality at 350 µg/mL", "setting": "Phthorimaea operculella [24]", "value": 31.6, "unit": "%"},
      {"measurement": "mortality at 5000 µg/mL", "setting": "Symmetrischema tangolias [25]", "value": 40, "unit": "%"},
      {"measurement": "mortality at 5000 µg/mL", "setting": "Symmetrischema tangolias [26]", "value": 100, "unit": "%"},
      {"measurement": "Activity", "setting": "Symmetrischema tangolias [27]", "value": "Active"},
      {"measurement": "mortality at 1250 µg/mL", "setting": "Symmetrischema tangolias [28]", "value": 15.6, "unit": "%"},
      {"measurement": "mortality at 5000 µg/mL", "setting": "Symmetrischema tangolias [29]", "value": 77.7, "unit": "%"},
      {"measurement": "mortality at 5000 µg/mL", "setting": "Phthorimaea operculella [30]", "value": 100, "unit": "%"},
      {"measurement": "mortality at 350 µg/mL", "setting": "Symmetrischema tangolias [31]", "value": 22.2, "unit": "%"},
      {"measurement": "mortality at 1250 µg/mL", "setting": "Phthorimaea operculella [32]", "value": 38.8, "unit": "%"}
    ]}
  ]
}
